Measurements from patent US7098204B2 (C.N.R.S., priority 1999, dated 2006).
In brackets after ≈: the same amount, converted by molar mass.

What was measured:
[1] = target: protein kinase C β1 (Homo sapiens, UniProt P05771); test: protein kinase C β1 assay; assay type: biochemical; details: 15 μM ATP
Protocol: (§1) Kinases activities were assayed in Buffer A or C (unless otherwise stated), at 30° C., at a final ATP concentration of 15 μM. Blank values were subtracted and activities calculated as pmoles of phosphate incorporated for a 10 min. incubation (usually expressed in % of the maximal activity, i.e. without inhibitors). Controls were performed with appropriate dilutions of Me2SO. In some cases phosphorylation of the substrate was assessed by autoradiography after SDS-PAGE. IC50 values were estimated from the dose-response curves. • CDK1/cyclin B was extracted in homogenisation buffer from M phase starfish (Marthasterias glacialis) oocytes and purified by affinity chromatography on p9^CKShs1-Sepharose beads, from which it was eluted by free p9^CKShs1 as described. The kinase activity was assayed in buffer C, with 1 mg histone H1/ml, in the presence of 15 μM [γ-^32P] ATP (3,000 Ci/mmol; 1 mCi/ml) in a final volume of 30 μl. After 10 min. incubation at 30° C., 25 μl aliquots of supernatant were spotted onto 2.5×3 cm pieces of Whatman P81 phosphocellulose paper, and, 20 sec. later, the filters were washed five times (for at least 5 min. each time) in a solution of 10 ml phosphoric acid/liter of water. The wet filters were counted in the presence of 1 ml ACS (Amersham) scintillation fluid. • GSK-3β was either purified from rabbit muscle or expressed in and purified from insect Sf9 cells. […]

[2] = target: topoisomerase II α (Homo sapiens, UniProt P11388); test: topoisomerase II α assay; assay type: biochemical; details: −(x) = no effect at the highest dose tested (in parentheses)
Chain of topoisomerase II α (P11388 whole entry): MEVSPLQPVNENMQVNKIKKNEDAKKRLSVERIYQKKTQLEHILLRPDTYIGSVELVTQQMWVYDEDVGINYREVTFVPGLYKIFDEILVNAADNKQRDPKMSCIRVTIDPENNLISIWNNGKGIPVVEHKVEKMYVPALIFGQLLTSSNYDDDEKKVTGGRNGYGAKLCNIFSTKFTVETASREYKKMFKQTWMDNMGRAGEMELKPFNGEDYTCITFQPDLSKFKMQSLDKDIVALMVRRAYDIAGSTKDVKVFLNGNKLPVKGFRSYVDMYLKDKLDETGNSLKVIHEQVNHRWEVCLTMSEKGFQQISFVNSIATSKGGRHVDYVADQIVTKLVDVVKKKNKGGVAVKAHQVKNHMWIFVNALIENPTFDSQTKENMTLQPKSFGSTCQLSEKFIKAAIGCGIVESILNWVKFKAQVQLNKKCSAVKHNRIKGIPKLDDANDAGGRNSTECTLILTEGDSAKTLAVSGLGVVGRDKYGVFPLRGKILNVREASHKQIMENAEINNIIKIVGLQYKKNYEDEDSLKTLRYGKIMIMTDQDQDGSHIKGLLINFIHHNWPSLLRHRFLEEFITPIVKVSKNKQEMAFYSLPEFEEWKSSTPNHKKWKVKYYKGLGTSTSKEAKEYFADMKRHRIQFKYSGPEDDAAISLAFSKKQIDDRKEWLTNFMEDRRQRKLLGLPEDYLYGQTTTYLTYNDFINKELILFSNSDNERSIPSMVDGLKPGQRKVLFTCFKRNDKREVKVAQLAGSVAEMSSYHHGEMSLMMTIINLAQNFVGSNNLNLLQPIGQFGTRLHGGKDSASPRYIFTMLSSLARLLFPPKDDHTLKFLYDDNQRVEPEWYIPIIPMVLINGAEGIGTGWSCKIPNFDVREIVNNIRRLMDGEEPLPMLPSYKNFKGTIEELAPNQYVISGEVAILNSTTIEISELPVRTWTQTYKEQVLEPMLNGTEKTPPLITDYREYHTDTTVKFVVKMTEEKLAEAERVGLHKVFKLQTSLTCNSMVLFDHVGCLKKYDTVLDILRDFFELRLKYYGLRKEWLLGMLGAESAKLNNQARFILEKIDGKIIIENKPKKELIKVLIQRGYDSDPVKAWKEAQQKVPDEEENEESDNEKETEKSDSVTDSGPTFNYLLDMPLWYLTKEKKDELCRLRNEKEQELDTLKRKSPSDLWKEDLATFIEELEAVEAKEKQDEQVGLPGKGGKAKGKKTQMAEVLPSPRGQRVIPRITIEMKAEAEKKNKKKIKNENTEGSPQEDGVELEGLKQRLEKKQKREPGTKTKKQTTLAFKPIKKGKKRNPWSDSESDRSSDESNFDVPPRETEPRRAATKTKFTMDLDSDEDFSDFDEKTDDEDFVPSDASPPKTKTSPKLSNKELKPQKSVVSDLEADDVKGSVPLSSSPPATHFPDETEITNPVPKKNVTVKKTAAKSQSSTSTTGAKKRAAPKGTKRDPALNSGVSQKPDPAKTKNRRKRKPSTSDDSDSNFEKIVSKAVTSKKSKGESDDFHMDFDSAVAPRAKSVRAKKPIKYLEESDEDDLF
Protocol: Enzyme activities were assayed as described in the Experimental Procedures section, in the presence of increasing HD concentrations. IC50's were calculated from the dose-response curves.−, no effect at the highest dose tested (in parentheses).

[3] = target: c-abl tyrosine kinase (Abelson murine leukemia virus, UniProt P00521); test: c-abl tyrosine kinase assay; assay type: biochemical; details: 15 μM ATP
Chain of c-abl tyrosine kinase (P00521 whole entry): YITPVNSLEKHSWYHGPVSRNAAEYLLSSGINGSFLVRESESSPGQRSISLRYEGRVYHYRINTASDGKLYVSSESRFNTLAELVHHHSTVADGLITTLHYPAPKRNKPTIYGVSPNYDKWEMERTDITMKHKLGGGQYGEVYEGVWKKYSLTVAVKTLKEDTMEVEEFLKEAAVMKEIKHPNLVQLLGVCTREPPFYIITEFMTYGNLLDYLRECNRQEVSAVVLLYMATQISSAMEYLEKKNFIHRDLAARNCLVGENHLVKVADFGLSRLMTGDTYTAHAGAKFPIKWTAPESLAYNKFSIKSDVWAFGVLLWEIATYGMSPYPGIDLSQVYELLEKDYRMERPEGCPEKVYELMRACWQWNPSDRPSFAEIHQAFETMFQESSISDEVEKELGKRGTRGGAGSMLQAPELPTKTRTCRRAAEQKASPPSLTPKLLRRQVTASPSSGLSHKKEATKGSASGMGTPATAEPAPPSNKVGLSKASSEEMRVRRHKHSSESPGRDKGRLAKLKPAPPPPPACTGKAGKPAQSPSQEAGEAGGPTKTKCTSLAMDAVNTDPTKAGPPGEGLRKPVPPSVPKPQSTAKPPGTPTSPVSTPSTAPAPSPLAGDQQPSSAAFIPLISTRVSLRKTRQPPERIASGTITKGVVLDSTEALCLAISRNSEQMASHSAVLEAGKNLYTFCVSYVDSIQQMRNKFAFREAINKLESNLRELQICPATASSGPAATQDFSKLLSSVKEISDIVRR
Protocol: as §1

[4] = target: CDK5/p35 (Rattus norvegicus, UniProt Q03114); test: In vivo Pak1 phosphorylation in cultured E18 cortical neurones; assay type: cell-based; parameters: endogenous in cells; host or cells: primary cortical neurones from E18 rat embryos; details: 1 hour exposure
Chain of CDK5/p35 (Q03114 whole entry): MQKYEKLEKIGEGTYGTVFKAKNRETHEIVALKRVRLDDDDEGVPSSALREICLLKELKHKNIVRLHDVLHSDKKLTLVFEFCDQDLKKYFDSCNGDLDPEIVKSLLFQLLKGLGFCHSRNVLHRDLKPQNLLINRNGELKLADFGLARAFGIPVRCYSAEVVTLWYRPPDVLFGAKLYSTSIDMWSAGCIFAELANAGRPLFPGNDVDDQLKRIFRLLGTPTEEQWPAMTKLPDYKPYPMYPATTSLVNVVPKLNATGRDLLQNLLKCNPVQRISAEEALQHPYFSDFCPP
Chain of CDK5/p35 (P61810 2-307 partner limits assumed): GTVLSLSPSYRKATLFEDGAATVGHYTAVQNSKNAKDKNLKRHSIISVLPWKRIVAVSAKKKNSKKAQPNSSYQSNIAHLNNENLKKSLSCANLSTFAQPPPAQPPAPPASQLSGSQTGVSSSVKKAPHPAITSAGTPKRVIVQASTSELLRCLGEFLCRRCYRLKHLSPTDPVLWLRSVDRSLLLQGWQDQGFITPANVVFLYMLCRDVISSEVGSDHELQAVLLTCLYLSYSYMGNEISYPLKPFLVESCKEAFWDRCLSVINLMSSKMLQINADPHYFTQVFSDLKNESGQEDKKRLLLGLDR
Protocol: HD was added onto cultured neurones obtained from E18 rat embryo cortices when the cultures were 4 days old. As a control DMSO was used to the maximal volume of drug used (7.5 μl). The drug was left on the cells for 1 hour. The cells were then lysed on ice in STM buffer and the membrane fraction isolated with STM containing 0.5% NP-40 [17].
Pak1 immunoprecipitations were carried out using a specific polyclonal antibody, followed by kinase assays using histone H4 as a a substrate. The amount of H4 phosphorylation, reflecting the level of Pak1 activity, was determined by measuring the intensity of the bands on autoradiography film and quantitating with NIH imaging program.
As loading controls Pak1 and p35 western blots were made. The latter protein increases in amount with the level of CDK5/p35 kinase inhibition.

[5] = target: CDK1/cyclin B; test: CDK1/cyclin B kinetic experiments varying ATP and HD; assay type: biochemical, starfish (Marthasterias glacialis)
Protocol: Blank values were subtracted and activities calculated as pmoles of phosphate incorporated for a 10 min. incubation (usually expressed in % of the maximal activity, i.e. without inhibitors). Controls were performed with appropriate dilutions of Me2SO. In some cases phosphorylation of the substrate was assessed by autoradiography after SDS-PAGE. IC50 values were estimated from the dose-response curves. • CDK1/cyclin B was extracted in homogenisation buffer from M phase starfish (Marthasterias glacialis) oocytes and purified by affinity chromatography on p9^CKShs1-Sepharose beads, from which it was eluted by free p9^CKShs1 as described. […] ATP (3,000 Ci/mmol; 1 mCi/ml) in a final volume of 30 μl. After 10 min. incubation at 30° C., 25 μl aliquots of supernatant were spotted onto 2.5×3 cm pieces of Whatman P81 phosphocellulose paper, and, 20 sec. later, the filters were washed five times (for at least 5 min. each time) in a solution of 10 ml phosphoric acid/liter of water. The wet filters were counted in the presence of 1 ml ACS (Amersham) scintillation fluid. • GSK-3β was either purified from rabbit muscle or expressed in and purified from insect Sf9 cells. […] ATP (3,000 Ci/mmol; 1 mCi/ml) in a final volume of 30 μl. […]

[6] = target: cdk2/cyclin A (Homo sapiens, UniProt P24941); test: cdk2/cyclin A kinase assay; assay type: biochemical; details: 15 μM ATP
Protocol: as §1

[7] = system: lung, H460; test: Human cancer cell line H460 proliferation; assay type: cell-based; details: NCI-H460
[8] = target: protein kinase C β2 (Homo sapiens, UniProt P05771); test: protein kinase C β2 assay; assay type: biochemical; details: 15 μM ATP
Chain of protein kinase C β2 (P05771 1-673 isoform P05771-2): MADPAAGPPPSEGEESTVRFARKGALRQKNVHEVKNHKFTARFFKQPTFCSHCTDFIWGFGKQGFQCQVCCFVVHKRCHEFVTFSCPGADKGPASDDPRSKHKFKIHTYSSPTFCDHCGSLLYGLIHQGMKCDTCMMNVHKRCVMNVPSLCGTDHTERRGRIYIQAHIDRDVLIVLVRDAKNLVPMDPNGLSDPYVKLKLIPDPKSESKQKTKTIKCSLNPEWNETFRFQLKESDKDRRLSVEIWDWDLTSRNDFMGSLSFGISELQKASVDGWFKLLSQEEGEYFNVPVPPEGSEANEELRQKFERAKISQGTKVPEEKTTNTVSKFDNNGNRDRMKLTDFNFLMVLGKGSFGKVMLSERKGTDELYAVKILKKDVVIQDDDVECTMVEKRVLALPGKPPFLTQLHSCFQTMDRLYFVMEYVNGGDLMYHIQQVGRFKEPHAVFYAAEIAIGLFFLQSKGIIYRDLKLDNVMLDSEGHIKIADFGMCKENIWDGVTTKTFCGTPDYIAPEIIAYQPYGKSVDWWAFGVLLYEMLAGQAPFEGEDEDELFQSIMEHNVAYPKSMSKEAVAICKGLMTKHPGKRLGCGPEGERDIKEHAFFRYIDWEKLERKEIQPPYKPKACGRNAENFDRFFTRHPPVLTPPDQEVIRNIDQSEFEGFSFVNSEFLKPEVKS
Protocol: as §1

Chain of protein kinase C β1 (P05771 whole entry): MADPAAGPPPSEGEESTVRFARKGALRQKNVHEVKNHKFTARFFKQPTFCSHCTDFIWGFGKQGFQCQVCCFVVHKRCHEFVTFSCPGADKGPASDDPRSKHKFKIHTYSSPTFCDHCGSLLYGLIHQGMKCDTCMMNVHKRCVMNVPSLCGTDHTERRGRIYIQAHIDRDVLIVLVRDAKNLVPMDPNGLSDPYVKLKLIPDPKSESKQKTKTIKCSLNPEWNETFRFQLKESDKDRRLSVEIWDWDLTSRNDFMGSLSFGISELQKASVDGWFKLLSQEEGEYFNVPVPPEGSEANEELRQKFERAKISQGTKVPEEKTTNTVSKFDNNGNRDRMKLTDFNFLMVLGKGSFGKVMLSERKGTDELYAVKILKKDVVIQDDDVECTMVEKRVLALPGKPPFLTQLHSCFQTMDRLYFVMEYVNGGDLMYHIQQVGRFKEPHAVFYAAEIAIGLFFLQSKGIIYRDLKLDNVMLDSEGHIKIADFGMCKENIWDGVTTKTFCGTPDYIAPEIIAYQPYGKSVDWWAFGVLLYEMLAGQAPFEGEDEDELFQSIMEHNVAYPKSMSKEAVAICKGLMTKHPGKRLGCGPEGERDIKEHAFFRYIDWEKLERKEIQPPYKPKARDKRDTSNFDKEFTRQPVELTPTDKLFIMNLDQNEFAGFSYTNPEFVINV

Structure (SMILES): NC1=NC(=O)C(=C2CCNC(=O)c3[nH]c(Br)cc32)N1 [hymenialdisine, 4-(2-amino-4-oxo-2-imidazolin-5-ylidene)-2-bromo-4,5,6,7-tetrahydropyrrolo (2,3-c) azepine-8-one]
- IC50 [1]: 1.2 µM
- IC50 [2]: > 10 µM
- IC50 [3]: 4 µM
- Pak1 activity (H4 phosphorylation) in neurons [4]: increase in Pak1 activity
- Ki ([5]; ATP 0.05 to 0.25 mM, histone H1 0.7 mg/ml, read-out: apparent inhibition constant (Ki)): 0.05 µM
- mechanism of inhibition ([5]; double-reciprocal plots): competitive inhibitor for ATP
- IC50 [6]: 0.07 µM
- IC50 [7]: 42 µg/mL (≈ 130 µM)
- IC50 [8]: 1.7 µM
